Results on one compound are retold here after publication PMC11679793, “Structure-Activity Relationship Study of Majusculamide D: Overcoming Metabolic Instability and Severe Toxicity with a Fluoro Analogue” (Marine Drugs, 2024).

Series [1] has as its system pancreatic cancer cells. Also on record: method as in PMID 30673235. Conditions: cited from earlier work.
Series [2] in a line: Serum biochemical analysis and H&E histology of liver and kidney. It is filed as in vivo, mice. Conditions: 5 mg/kg every other day, 14 days. How it is done:
In the biochemical and histological assays, 1n (5 mg/kg) and 1a (5 mg/kg) were administered to mice every other day, with the control group receiving an equivalent dose of saline. Following 14 days, mouse serum was collected for biochemical analysis, and organs were fixed for histological examination. […] In comparison, the liver tissues of the 1n-treated and control groups were normal.
Mice were euthanized, and liver and kidney tissues were collected and fixed in 10% neutral-buffered formalin for 48 h. The fixed tissues were processed for paraffin embedding, including dehydration in a graded ethanol series, clearing with xylene, and infiltration with molten paraffin wax. Paraffin blocks were sectioned into 4 μm slices using a rotary microtome, and the sections were mounted onto glass slides. The slides were dried at 60 °C for 4 h to ensure proper tissue adhesion. Following deparaffinization and rehydration, staining was performed according to the manufacturer’s instructions for the H&E staining kit (Solarbio, China). The sections were immersed in a hematoxylin solution for 3 min to stain the nuclei and then rinsed under running tap water for 1 minute to remove excess stain. Differentiation was achieved by briefly immersing the slides in a 1% hydrochloric acid-ethanol solution, followed by neutralization in 0.6% ammonia water until the nuclei appeared blue. Eosin staining was applied for 30 s to stain cytoplasmic and extracellular components, imparting a pink coloration. The slides were rinsed under running tap water for 30 s to remove excess eosin. Finally, the sections were dehydrated through a graded ethanol series, cleared with xylene, and coverslipped with a neutral resin mounting medium to preserve the stained tissues for microscopic examination.

In series [3] the test system is pancreatic cancer cells. Kind of series: EdU assay. It is filed as cell-based. The settings on record: 48 h treatment, concentration-dependent, vs control. An excerpt:
The EdU ([…]) assay is a well-established method that assesses cell proliferation activity by detecting DNA synthesis. The results of EdU assays indicated […]
concentration-dependent manner. […]
the DNA synthesis of pancreatic cancer cells, thereby inhibiting the proliferation of pancreatic cancer cells, which was consistent with the results of clone formation assays. […]
Snail and TCF8/ZEB1 both […]
are transcription factors that can inhibit the expression of E-cadherin and promote the EMT process. Vimentin is a marker protein of mesenchymal cells, and its expression increases during EMT, further contribute to the process of metastasis by supporting the structural changes needed for cell migration and invasion.
We examined the effects of compound 1a on above key proteins involved in tumor progression pathways employing Western blot analysis in PANC-1 cells and MIA PaCa-2 […]
1a might inhibit cancer cell invasion and migration by enhancing cell-cell adhesion and barrier function. Conversely, the expression levels of β-catenin, Fibronectin, Snail, […]
Cells were resuspended at a concentration of 300 cells/mL, and 2 mL of the suspension was added to each well of a 6-well plate. […] The colonies were imaged under a microscope and quantified using ImageJ. […]

Series [4] can be described thus: Preliminary water solubility test. It counts as physicochemical. Conditions: 25 °C, ultrasonic treatment 30 min, visual.

Molecules are shown by their SMILES.

For `CCCCC(C)CC(C)C(=O)N(C)C(Cc1ccc(OC)cc1)C(=O)NC(C(=O)N(C)C(C(=O)N1CC(O)CC1C(=O)N1C(=O)C=CC1C)C(C)C)C(C)OC(C)=O` (stereo not drawn) [Compound 1a, Majusculamide D], the “selectivity against pancreatic cancer cells in vitro” value in series [1] is “up to 4 × 10^3”. Besides, in series [2], the “kidney tissue H&E histology” value is reported as “no significant pathological differences”; the “liver tissue H&E histology” value was “signs of hepatocyte necrosis and disruption of the hepatic cord structure”. Besides, in series [2] (n = 3), the “serum ALT and AST levels compared to the control group” value is “substantially elevated”. In addition, the “cell proliferation ability (EdU, DNA synthesis)” value in series [3] was “decreased in comparison to the control group”. Moreover, in series [4], the “Solubility (mg/mL)” value is given as “Insoluble”.
